Test results from patent publication US9732080B2 (Vertex Pharmaceuticals Incorporated, priority 2006, dated 2017).

Biological target: T1, ΔF508-CFTR (Homo sapiens, UniProt P13569, DEL508-508)
T1 construct: expressed in transfected cells
Assay: Membrane potential optical assay, identification of correction compounds (ΔF508-CFTR correction)
Format: cell-based
Conditions: PercentActivity; NIH3T3 mouse fibroblasts stably expressing ΔF508-CFTR; 16-24 hrs with compound; read-out: Binned Max Efficacy
Source text: Membrane potential optical methods for assaying ΔF508-CFTR modulation properties of compounds.
The assay utilizes fluorescent voltage sensing dyes to measure changes in membrane potential using a fluorescent plate reader (e.g., FLIPR III, Molecular Devices, Inc.) as a readout for increase in functional ΔF508-CFTR in NIH 3T3 cells. The driving force for the response is the creation of a chloride ion gradient in conjunction with channel activation by a single liquid addition step after the cells have previously been treated with compounds and subsequently loaded with a voltage sensing dye.
To identify small molecules that correct the trafficking defect associated with ΔF508-CFTR; a single-addition HTS assay format was developed. Assay Plates containing cells are incubated for ˜2-4 hours in tissue culture incubator at 37° C., 5% CO2, 90% humidity. Cells are then ready for compound exposure after adhering to the bottom of the assay plates.
The cells were incubated in serum-free medium for 16-24 firs in tissue culture incubator at 37° C., 5% CO2, 90% humidity in the presence or absence (negative control) of test compound. The cells were subsequently rinsed 3× with Krebs Ringers solution and loaded with a voltage sensing redistribution dye. To activate ΔF508-CFTR, 10 μM forskolin and the CFTR potentiator, genistein (20 μM), were added along with Cl^−-free medium to each well. The addition of Cl^−-free medium promoted Cl^− efflux in response to ΔF508-CFTR activation and the resulting membrane depolarization was optically monitored using voltage sensor dyes.
Bath Solution #1: (in mM) NaCl 160, KCl 4.5, CaCl2 2, MgCl2 1, HEPES 10, pH 7.4 with NaOH.
Chloride-free bath solution: Chloride salts in Bath Solution #1 are substituted with gluconate salts.
NIH3T3 mouse fibroblasts stably expressing ΔF508-CFTR are used for optical measurements of membrane potential. The cells are maintained at 37° C. in 5% CO2 and 90% humidity in Dulbecco's modified Eagle's medium supplemented with 2 mM glutamine, 10% fetal bovine serum, 1×NEAA, β-ME, 1× pen/strep, and 25 mM HEPES in 175 cm^2 culture flasks. For all optical assays, the cells were seeded at ˜20,000/well in 384-well matrigel-coated plates and cultured for 2 hrs at 37° C. before culturing at 27° C. for 24 hrs. for the potentiator assay. For the correction assays, the cells are cultured at 27° C. or 37° C. with and without compounds for 16-24 hours.

T1 sequence (P13569 with tags, fused parts or gaps DEL508-508): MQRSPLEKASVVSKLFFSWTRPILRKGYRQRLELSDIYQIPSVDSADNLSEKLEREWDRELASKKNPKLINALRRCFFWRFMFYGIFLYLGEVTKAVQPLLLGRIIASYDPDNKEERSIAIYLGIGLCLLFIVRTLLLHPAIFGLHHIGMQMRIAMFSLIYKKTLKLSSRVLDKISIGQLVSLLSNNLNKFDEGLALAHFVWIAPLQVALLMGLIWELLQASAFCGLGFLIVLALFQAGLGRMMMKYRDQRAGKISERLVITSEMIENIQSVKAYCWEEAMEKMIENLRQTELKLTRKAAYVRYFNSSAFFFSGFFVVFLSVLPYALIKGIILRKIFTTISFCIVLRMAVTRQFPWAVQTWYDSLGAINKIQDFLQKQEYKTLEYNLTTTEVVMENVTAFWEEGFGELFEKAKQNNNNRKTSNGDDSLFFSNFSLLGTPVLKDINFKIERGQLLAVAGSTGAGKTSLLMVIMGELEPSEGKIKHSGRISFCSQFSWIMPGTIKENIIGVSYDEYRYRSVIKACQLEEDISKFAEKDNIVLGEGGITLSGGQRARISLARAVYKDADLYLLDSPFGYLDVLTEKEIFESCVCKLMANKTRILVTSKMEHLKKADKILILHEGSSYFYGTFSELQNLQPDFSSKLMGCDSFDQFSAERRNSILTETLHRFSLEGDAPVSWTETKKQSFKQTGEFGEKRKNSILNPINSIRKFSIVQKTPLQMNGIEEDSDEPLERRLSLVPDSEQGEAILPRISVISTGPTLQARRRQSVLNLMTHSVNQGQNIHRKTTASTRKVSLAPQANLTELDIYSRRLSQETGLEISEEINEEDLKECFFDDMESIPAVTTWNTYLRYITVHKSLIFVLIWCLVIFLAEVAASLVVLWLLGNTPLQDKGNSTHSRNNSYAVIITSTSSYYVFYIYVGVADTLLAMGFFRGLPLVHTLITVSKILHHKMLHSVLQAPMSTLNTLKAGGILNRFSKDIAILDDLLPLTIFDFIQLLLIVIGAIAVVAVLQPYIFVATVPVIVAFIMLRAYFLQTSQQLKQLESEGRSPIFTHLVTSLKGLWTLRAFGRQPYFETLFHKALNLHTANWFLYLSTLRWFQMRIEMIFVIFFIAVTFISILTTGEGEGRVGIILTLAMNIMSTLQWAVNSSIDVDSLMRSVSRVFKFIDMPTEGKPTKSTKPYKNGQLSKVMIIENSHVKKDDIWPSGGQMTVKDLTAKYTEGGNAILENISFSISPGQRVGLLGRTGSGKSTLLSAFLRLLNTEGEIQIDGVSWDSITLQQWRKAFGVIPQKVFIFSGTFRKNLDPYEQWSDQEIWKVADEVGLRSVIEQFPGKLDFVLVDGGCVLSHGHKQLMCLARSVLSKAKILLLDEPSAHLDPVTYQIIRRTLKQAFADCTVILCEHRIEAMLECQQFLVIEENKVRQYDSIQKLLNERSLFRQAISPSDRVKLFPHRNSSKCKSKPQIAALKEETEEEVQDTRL

Structure (SMILES) | Emax [%]
O=C(Nc1cc2cc(C3CCC3)[nH]c2cn1)C1(c2ccc3c(c2)OC(F)(F)O3)CC1 [Compound 11, N-(2-cyclobutyl-1H-pyrrolo[2,3-c]pyridin-5-yl)-1-(2,2-difluorobenzo[d][1,3]dioxol-5-yl)cyclopropanecarboxamide] | > 100
COc1ccc(C2(C(=O)Nc3cnc4[nH]c(C(C)(C)C)cc4c3)CC2)cc1 [Compound 3, N-(2-tert-butyl-1H-pyrrolo[2,3-b]pyridin-5-yl)-1-(4-methoxyphenyl)cyclopropanecarboxamide] | 25 to 100
CC(C)(C)c1cc2nc(NC(=O)C3(c4ccc5c(c4)OC(F)(F)O5)CC3)ccc2[nH]1 [Compound 12, N-(2-tert-butyl-1H-pyrrolo[3,2-b]pyridin-5-yl)-1-(2,2-difluorobenzo[d][1,3]dioxol-5-yl)cyclopropanecarboxamide] | > 100
CCc1cc2cc(NC(=O)C3(c4ccc5c(c4)OC(F)(F)O5)CC3)ncc2[nH]1 [Compound 9, 1-(2,2-difluorobenzo[d][1,3]dioxol-5-yl)-N-(2-ethyl-1H-pyrrolo[2,3-c]pyridin-5-yl)cyclopropanecarboxamide] | > 100
CC(C)(C)c1cc2cc(NC(=O)C3(c4ccc5c(c4)OC(F)(F)O5)CC3)ncc2n1CCO [Compound 15, N-(2-tert-butyl-1-(2-hydroxyethyl)-1H-pyrrolo[2,3-c]pyridin-5-yl)-1-(2,2-difiuorobenzo[d][1,3]dioxol-5-yl)cyclopropanecarboxamide] | > 100
CC(C)(C)c1cc2cc(NC(=O)C3(c4ccc5c(c4)OC(F)(F)O5)CC3)cnc2[nH]1 [Compound 13, N-(2-tert-butyl-1H-pyrrolo[2,3-b]pyridin-5-yl)-1-(2,2-difluorobenzo[d][1,3]dioxol-5-yl)cyclopropanecarboxamide] | > 100
CC1(c2cc3cc(NC(=O)C4(c5ccc6c(c5)OC(F)(F)O6)CC4)ncc3[nH]2)CC1 [Compound 10, 1-(2,2-difluorobenzo[d][1,3]dioxol-5-yl)-N-(2-(1-methylcyclopropyl)-1H-pyrrolo[2,3-c]pyridin-5-yl)cyclopropanecarboxamide] | > 100
COc1ccc(C2(C(=O)Nc3ccc4[nH]c(C(C)(C)C)cc4n3)CC2)cc1 [Compound 2, N-(2-tert-butyl-1H-pyrrolo[3,2-b]pyridin-5-yl)-1-(4-methoxyphenyl)cyclopropanecarboxamide] | 25 to 100
O=C(Nc1ccc2cc[nH]c2n1)C1(c2ccc3c(c2)OCO3)CC1 [Compound 1, 1-(benzo[d][1,3]dioxol-5-yl)-N-(1H-pyrrolo[2,3-b]pyridin-6-yl)cyclopropanecarboxamide] | > 100
CC(C)(C)c1cc2cc(NC(=O)C3(c4ccc5c(c4)OCO5)CC3)ncc2[nH]1 [Compound 8] | 25 to 100
CC(C)(C)c1cc2nc(NC(=O)C3(c4ccc5c(c4)OCO5)CC3)ccc2[nH]1 [Compound 7] | 25 to 100
COc1cccc(C2(C(=O)Nc3ccc4[nH]c(C(C)(C)C)cc4n3)CC2)c1 [Compound 4, N-(2-tert-butyl-1H-pyrrolo[3,2-b]pyridin-5-yl)-1-(3-methoxyphenyl)cyclopropanecarboxamide] | 25 to 100
CC(C)(C)c1cc2cc(NC(=O)C3(c4ccc5c(c4)OC(F)(F)O5)CC3)ncc2[nH]1 [Compound 14, N-(2-tert-butyl-1H-pyrrolo[2,3-c]pyridin-5-yl)-1-(2,2-difluorobenzo[d][1,3]dioxol-5-yl)cyclopropanecarboxamide] | > 100
CC(C)(C)c1cc2cc(NC(=O)C3(c4ccc5c(c4)OCO5)CC3)cnc2[nH]1 [Compound 6] | > 100
COc1cccc(C2(C(=O)Nc3cnc4[nH]c(C(C)(C)C)cc4c3)CC2)c1 [Compound 5] | 25 to 100
